Test systems include SNB-75 CNS; A549 NSCLC; SK-MEL-5 melanoma; K-562 leukemia; MCF7 breast; SW-620 colon; SF-295 CNS; HL-60(TB) leukemia; OVCAR-4 ovarian; CCRF-CEM leukemia; HCT-116 colon; IGROV1 ovarian; EKVX NSCLC; HCC-2998 colon; SNB-19 CNS; M14 melanoma; MOLT-4 leukemia; UACC-62 melanoma; OVCAR-5 ovarian; KM12 colon.
What all share (experiment): growth of human tumour cells (NCI), 48 h

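The compound was tested at five concentrations on cells cultured in 96-well plates, with a 48-hour exposure period. The concentration for full growth arrest is given as TGI.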

With `CC(C)=NNc1ncnc2nc[nH]c12`, the TGI was > 79.6 µM in the test with SNB-75 CNS; > 72.4 µM with A549 NSCLC; 48.8 µM with SK-MEL-5 melanoma; > 100 µM with K-562 leukemia; > 100 µM in the test with MCF7 breast; > 100 µM with SW-620 colon. In addition, the TGI is > 100 µM in the test with SF-295 CNS; > 72.5 µM in the test on HL-60(TB) leukemia; > 100 µM in the test on OVCAR-4 ovarian; > 100 µM in the test with CCRF-CEM leukemia; > 75.4 µM in the test with HCT-116 colon; > 100 µM with IGROV1 ovarian. Further, the TGI in the test on EKVX NSCLC is 98.2 µM; in the test with HCC-2998 colon it was 32 µM; with SNB-19 CNS, > 100 µM; in the test on M14 melanoma it was > 100 µM; in the test with MOLT-4 leukemia, > 100 µM; in the test with UACC-62 melanoma, 20 µM. Also, the TGI with OVCAR-5 ovarian was > 48.4 µM; in the test with KM12 colon, > 100 µM.

Regarding `Cc1cc(OC(=O)Nc2ccc(Cl)cc2)ccc1C(=S)Nc1ccccc1`, the TGI with SNB-75 CNS, in the test with A549 NSCLC, with SK-MEL-5 melanoma, in the test with K-562 leukemia, with MCF7 breast and with SW-620 colon was > 100 µM in each case. The TGI is > 100 µM in the test with SF-295 CNS; 53.7 µM in the test on HL-60(TB) leukemia; > 100 µM in the test with OVCAR-4 ovarian; 58 µM in the test with CCRF-CEM leukemia; > 100 µM with HCT-116 colon; > 100 µM in the test on IGROV1 ovarian. The TGI with EKVX NSCLC, in the test on HCC-2998 colon, with SNB-19 CNS, in the test on M14 melanoma, in the test with MOLT-4 leukemia and with UACC-62 melanoma was > 100 µM each time. Moreover, the TGI with OVCAR-5 ovarian and with KM12 colon was > 100 µM each time.

With `Cc1cc(/N=C/c2ccc(Cl)cc2)n(-c2ccccc2)n1`, the TGI with SNB-75 CNS was > 100 µM; in the test with A549 NSCLC, > 100 µM; with SK-MEL-5 melanoma, 68.8 µM; with K-562 leukemia, > 100 µM; in the test with MCF7 breast it was > 100 µM; in the test with SW-620 colon, > 100 µM. Further, the TGI with SF-295 CNS is > 100 µM; in the test on HL-60(TB) leukemia, 91.5 µM; in the test with OVCAR-4 ovarian, > 100 µM; in the test on CCRF-CEM leukemia, > 100 µM; with HCT-116 colon, > 100 µM; with IGROV1 ovarian, > 100 µM. Further, the TGI was > 100 µM with EKVX NSCLC; 71 µM with HCC-2998 colon; > 100 µM with SNB-19 CNS; > 100 µM in the test on M14 melanoma; > 100 µM with MOLT-4 leukemia; > 100 µM in the test with UACC-62 melanoma. Also, the TGI with OVCAR-5 ovarian and with KM12 colon was > 100 µM throughout.

Turning to `COc1cccc(Nc2nc(NS(=O)(=O)c3cc(C)c(Cl)cc3S)n[nH]2)c1`, the TGI in the test on SNB-75 CNS, in the test with A549 NSCLC, in the test with SK-MEL-5 melanoma, in the test with K-562 leukemia, with MCF7 breast and with SW-620 colon was > 100 µM in each case. The TGI with SF-295 CNS, in the test on HL-60(TB) leukemia, in the test with OVCAR-4 ovarian, with CCRF-CEM leukemia, with HCT-116 colon and in the test on IGROV1 ovarian was > 100 µM in each case. The TGI with EKVX NSCLC, in the test on HCC-2998 colon, in the test with SNB-19 CNS, with M14 melanoma, with MOLT-4 leukemia and with UACC-62 melanoma was > 100 µM each time. Besides, the TGI with OVCAR-5 ovarian and in the test on KM12 colon was > 100 µM in each case.

For `COc1cccc(N2C(=O)C3CC(CC(C)(C)C)c4c([nH]c5ccccc45)C3C2=O)c1` (stereo not given), the TGI is 7.04 µM in the test with SNB-75 CNS; > 10 µM in the test on A549 NSCLC; > 10 µM with SK-MEL-5 melanoma; > 10 µM in the test with K-562 leukemia; > 10 µM with MCF7 breast; > 10 µM in the test on SW-620 colon. The TGI in the test with SF-295 CNS, with HL-60(TB) leukemia, with OVCAR-4 ovarian, in the test with CCRF-CEM leukemia, with HCT-116 colon and in the test on IGROV1 ovarian was > 10 µM each time. Moreover, the TGI with EKVX NSCLC, with HCC-2998 colon, in the test on SNB-19 CNS, in the test on M14 melanoma, in the test on MOLT-4 leukemia and in the test with UACC-62 melanoma was > 10 µM each time. Moreover, the TGI with OVCAR-5 ovarian and in the test with KM12 colon was > 10 µM each time.

As for `COC(=O)C1(Cc2ccccc2)Cc2c(C)ccc(C)c2C1=O` (stereo not given), the TGI with SNB-75 CNS was 61.3 µM; in the test on A549 NSCLC it was 36.4 µM; in the test with SK-MEL-5 melanoma it was 28.8 µM; in the test with K-562 leukemia, > 100 µM; with MCF7 breast, 81.1 µM; in the test on SW-620 colon, > 100 µM. In addition, the TGI was > 100 µM with SF-295 CNS; 54 µM in the test on HL-60(TB) leukemia; > 100 µM in the test with OVCAR-4 ovarian; > 100 µM in the test with CCRF-CEM leukemia; > 100 µM in the test with HCT-116 colon; > 100 µM with IGROV1 ovarian. In addition, the TGI in the test on EKVX NSCLC is > 100 µM; in the test on HCC-2998 colon, 97.7 µM; in the test with SNB-19 CNS it was > 100 µM; with M14 melanoma, 98.8 µM; in the test with MOLT-4 leukemia it was 57.5 µM; in the test on UACC-62 melanoma, 54.8 µM. Moreover, the figures for the TGI in the test on OVCAR-5 ovarian and in the test on KM12 colon were > 100 µM and 42.8 µM, respectively.

On to `CC1=CC(=O)c2c(O)c3c(c(O)c2C1=O)C1C(O)C(C3=O)C23C(=O)c4c(O)c(C)cc(O)c4C(O)=C2C(=O)CC(O)C13` (stereo not given), for which the TGI was 9.1 µM in the test with SNB-75 CNS; 10.8 µM with A549 NSCLC; 4 µM with SK-MEL-5 melanoma; > 100 µM in the test with K-562 leukemia; 14.6 µM with MCF7 breast; 12.2 µM in the test with SW-620 colon. Moreover, the TGI is 2.3 µM in the test on SF-295 CNS; > 100 µM in the test on HL-60(TB) leukemia; 28 µM in the test with OVCAR-4 ovarian; > 100 µM in the test with CCRF-CEM leukemia; 2.5 µM in the test on HCT-116 colon; 6.58 µM with IGROV1 ovarian. In addition, the TGI with EKVX NSCLC was 8.21 µM; with HCC-2998 colon, 10.2 µM; in the test on SNB-19 CNS it was 20.2 µM; in the test on M14 melanoma it was 10.5 µM; in the test on MOLT-4 leukemia, 13 µM; in the test on UACC-62 melanoma it was 3.24 µM. The results for the TGI in the test with OVCAR-5 ovarian and with KM12 colon were 9.08 µM and 2.5 µM, respectively.

The values above are taken from PubChem BioAssay (NCI).
